EP4644383A1 (Jiangsu Yahong Meditech Co., Ltd., priority 2022, dated 2024)
pIC50: −log10 of the molar value. Where two headings read alike, the source gives them in different places.

Experiments:
FGFR4 = biological target: T1, FGFR4 (Homo sapiens, UniProt P22455); test: FGFR4 kinase activity inhibition assay (LanthaScreen TR-FRET); format: biochemical; details: for IC50: FGFR4 kinase, TR-FRET, read-out: IC50 (nM) FGFR4
T1 construct: FGFR4's cytoplasmic domain [460-802 (terminal) amino acids]; purchased Carna 08-136
Outline: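 GST-tagged cytoplasmic domains (FGFR2 aa 399-821; FGFR4 aa 460-802) were preincubated 10 min at 23 °C with compound (top 1 µM, threefold dilutions). Then 28 nM fluorescein-poly GT and 28 µM ATP were added for 30 min at 23 °C in HEPES pH 7.5 buffer. Tb-PY20 TR-FRET 520/495 ratio gave % inhibition versus DMSO and no-enzyme controls.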

[1] = tested on: RT112 cells (bladder cancer cells); test: Inhibition of proliferation activity of RT112 cells (CellTiter-Glo); format: cell-based; details: Homo sapiens, read-out: IC50 (nM) RT112
Procedure: The present experiment used CellTiter-Glo® Luminescent Cell Viability Assay (Promega: G7573) kit, which was a homogeneous cell viability detection method and determined the cell viability of cultured cells by quantifying ATP. • ① RT112 cells were cultured in MEM complete medium (Gibco: 51200038) (10% FBS (Gibco: 10091-148)+1% Pen Strep (Gibco: 15140122)+1% NEAA (Gibco: 11140050)) under the condition of 37°C and 5% CO2. • (2) The cells in logarithmic growth phase were harvested and counted using a […]. The trypan blue exclusion method was used to detect cell viability to ensure the cell viability was above 90%. • ③ The cell density was adjusted using MEM complete medium, and then, the cells were seeded into a 96-well cell culture plate at 90 µL/well with a total of 3000 cells. • ④ The 96-well plate with the cells was placed under the condition of 37°C and 5% CO2 to be cultured for 24 hours. • ⑤ 24 hours later, a 10-fold drug solution was prepared starting from a maximum drug concentration of 10 µM and 4-fold serially diluted into10 concentrations. Then, 10 µL of each of the serially diluted compounds was transferred to the corresponding experimental wells of a 96-well cell plate, with two replicates for each drug concentration. • ⑥ The 96-well plate with the cells that had been treated with the drugs was placed under the condition of 37°C and 5% CO2 to be further cultured for 72 hours, and then analyzed by CTG. • ⑦ The CTG reagent was melted and the cell plate was equilibrated to room temperature for 30 minutes. • ⑧ 50 µL of the CTG solution was added to each well. • ⑨ The cell plate was shaken on an orbital shaker for 5 minutes to lyse the cells. • ⑩ The cell plate was placed at room temperature for 20 minutes to stabilize the luminescence signal. The luminescence values were read to collect the data. • ⑪ The data were analyzed using XLFit excel plugin version 5.5.0.5, and fitted with non-linear S-curve regression to obtain the dose-response curves and thus calculate the IC50 values. Y = Bottom + (Top-Bottom)/((1+(IC50/X))^(∧) HillSlope [formula]
"Top" refers to the maximum response, "Bottom" refers to the minimum response, and "HillSlope" refers to the slope of the curve.
"Max" represents the average value of the cell+DMSO control, and "Min" represents the average value of the medium control+DMSO.

FGFR3 = biological target: T2, FGFR3 (Homo sapiens, UniProt P22607); test: FGFR3 kinase activity inhibition assay (LanthaScreen TR-FRET); format: biochemical; details: for IC50: FGFR3 kinase, TR-FRET, read-out: IC50 (nM) FGFR3; for Selectivity (X) FGFR1/FGFR3: ratio of IC50 FGFR1/FGFR3, selectivity towards FGFR3; for Selectivity (X) FGFR2/FGFR3: ratio of IC50 FGFR2/FGFR3, selectivity towards FGFR3; for Selectivity (X) FGFR4/FGFR3: ratio of IC50 FGFR4/FGFR3, selectivity towards FGFR3
T2 construct: FGFR3's cytoplasmic domain [436-806 (terminal) amino acids]; purchased Carna 08-135
Outline: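 Read-out is TR-FRET, with the 520 nm/495 nm emission ratio normalised to DMSO (max) and enzyme-free (min) controls. Enzyme was the FGFR3 cytoplasmic domain, residues 436-806. EDTA (10 mM) stopped the reaction, followed by 60 min at 22 °C before reading.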

FGFR2 = biological target: T3, FGFR2 (Homo sapiens, UniProt P21802); test: FGFR2 kinase activity inhibition assay (LanthaScreen TR-FRET); format: biochemical; details: for IC50: FGFR2 kinase, TR-FRET, read-out: IC50 (nM) FGFR2
T3 construct: FGFR2's cytoplasmic domain [399-821 (terminal) amino acids]; purchased Carna 08-134
Outline: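 GST-fused FGFR2 cytoplasmic domain (aa 399-821) was run as in the FGFR1 protocol: preincubated 10 min at 23 °C with compound (3-fold series from 1 µM) in 50 mM HEPES pH 7.5, 10 mM MgCl2, 4 mM DTT, 1% DMSO. A 2× mix of 28 nM fluorescein-poly GT/28 µM ATP then reacted 30 min. Tb-PY20/EDTA quench preceded the TR-FRET 520/495 read.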

[2] = RT-112, RT112 cells, 72 hours, CTG

T1 sequence (P22455 460-802): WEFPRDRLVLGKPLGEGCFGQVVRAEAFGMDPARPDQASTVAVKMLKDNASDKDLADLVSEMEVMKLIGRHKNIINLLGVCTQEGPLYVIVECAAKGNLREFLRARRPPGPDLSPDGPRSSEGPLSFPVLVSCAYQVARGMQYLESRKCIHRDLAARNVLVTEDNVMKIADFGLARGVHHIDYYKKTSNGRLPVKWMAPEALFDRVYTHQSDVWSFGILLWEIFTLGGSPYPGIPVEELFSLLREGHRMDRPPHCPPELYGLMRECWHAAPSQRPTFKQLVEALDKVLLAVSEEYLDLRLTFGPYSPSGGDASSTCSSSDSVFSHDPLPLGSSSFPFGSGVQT
T3 sequence (P21802 399-821): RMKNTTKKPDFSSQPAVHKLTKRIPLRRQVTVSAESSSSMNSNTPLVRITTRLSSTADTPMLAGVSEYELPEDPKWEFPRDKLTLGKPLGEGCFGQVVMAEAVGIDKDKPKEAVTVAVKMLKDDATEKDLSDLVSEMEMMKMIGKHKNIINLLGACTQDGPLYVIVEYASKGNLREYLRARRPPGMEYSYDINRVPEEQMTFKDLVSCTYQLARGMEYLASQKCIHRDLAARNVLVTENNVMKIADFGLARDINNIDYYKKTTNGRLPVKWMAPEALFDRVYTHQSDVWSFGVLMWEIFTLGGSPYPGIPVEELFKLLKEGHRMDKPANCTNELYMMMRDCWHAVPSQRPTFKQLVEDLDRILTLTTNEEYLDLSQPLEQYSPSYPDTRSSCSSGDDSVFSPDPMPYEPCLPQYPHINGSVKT
T2 sequence (P22607 436-806): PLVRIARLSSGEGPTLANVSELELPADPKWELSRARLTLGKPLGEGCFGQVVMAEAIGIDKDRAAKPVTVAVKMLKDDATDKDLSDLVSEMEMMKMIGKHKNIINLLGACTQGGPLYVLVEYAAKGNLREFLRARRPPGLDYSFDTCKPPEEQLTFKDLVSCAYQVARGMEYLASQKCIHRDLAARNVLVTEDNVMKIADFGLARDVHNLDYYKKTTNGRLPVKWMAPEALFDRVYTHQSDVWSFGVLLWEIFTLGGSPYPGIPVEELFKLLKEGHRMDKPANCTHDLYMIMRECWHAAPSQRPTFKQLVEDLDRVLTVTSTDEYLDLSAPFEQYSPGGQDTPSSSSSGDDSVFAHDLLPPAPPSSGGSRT

SMILES	IC50 (FGFR4)	IC50 (FGFR3)	Selectivity (X) FGFR1/FGFR3 (FGFR3)	Selectivity (X) FGFR2/FGFR3 (FGFR3)	Selectivity (X) FGFR4/FGFR3 (FGFR3)	IC50 (FGFR2)	IC50 [1, 2]	IC50 ([1]; RT-112, 72 h)	pIC50 (FGFR4)	pIC50 (FGFR3)	pIC50 (FGFR2)
C[C@@H](Oc1ccc2[nH]nc(-c3ccc(S(C)(=N)=O)nc3)c2c1)c1c(Cl)cncc1Cl (stereo partly drawn) [Comparative Example 85, (5-(5-((R)-1-(3,5-dichloropyridin-4-yl)ethoxy)-1H-indazol-3-yl)pyridin-2-yl)(imino)(methyl)-sulfanone, reference compound]	10 to 100 nM	–	–	–	–	–	–	58.8 nM	–	–	–
C[C@@H](Oc1cc(F)c2[nH]nc(-c3cnn(CCN4CCOCC4)c3)c2c1)c1c(Cl)cncc1Cl [Example 12, (R)-4-(2-(4-(5-(1-(3,5-dichloropyridin-4-yl)ethoxy)-7-fluoro-1H-indazol-3-yl)-1H-pyrazol-1-yl)ethyl)morph oline]	10 to 100 nM	1 to 10 nM	B (B represents 20 ≤ multiple X<50)	A (A represents 1 ≤ multiple X<20)	C (C represents 50 ≤ multiple X<100)	1 to 10 nM	43.1 nM	–	–	–	–
CC(Oc1ccc2[nH]nc(-c3cnn(C)c3)c2c1)c1cccc2ncccc12 (centres unmarked) [Example 88, 5-(1-((3-(1-methyl-1H-pyrazol-4-yl)-1H-indazol-5-yl)oxy)ethyl)quin oline]	10 to 100 nM	1 to 10 nM	A (A represents 1 ≤ multiple X<20)	A (A represents 1 ≤ multiple X<20)	C (C represents 50 ≤ multiple X<100)	1 to 10 nM	167 nM	–	–	–	–
Cc1ccc2ncccc2c1C(C)Oc1ccc2[nH]nc(-c3cnn(C)c3)c2c1 (centres unmarked) [Example 95, 6-methyl-5-(1-((3-(1-methyl-1H-pyrazol-4-yl)-1H-indazol-5-yl)oxy)ethyl)quinolinee]	–	–	C (C represents 50 ≤ multiple X<100)	A (A represents 1 ≤ multiple X<20)	C (C represents 50 ≤ multiple X<100)	–	23.4 nM	–	7.00 to 8.00	8.00 to 9.00	8.00 to 9.00
CC(Oc1ccc2[nH]nc(-c3cnn(C)c3)c2c1)c1cccn2ncnc12 (centres unmarked) [Example 101, 8-(1-((3-(1-methyl-1H-pyrazol-4-yl)-1H-indazol-5-yl)oxy)ethyl)-[1,2,4]triazolo[1,5-a]pyridine]	–	1 to 10 nM	A (A represents 1 ≤ multiple X<20)	–	–	–	85 nM	–	–	–	–
CC(Oc1ccc2[nH]nc(-c3cnn(C)c3)c2c1)c1c(C(F)F)ccc2ncccc12 (centres unmarked) [Example 127, 6-(difluoromethyl)-5-(1-((3-(1-methyl-1H-pyrazol-4-yl)-1H-indazol-5-yl)oxy)ethyl)quinoline]	> 100 nM	< 1 nM	C (C represents 50 ≤ multiple X<100)	A (A represents 1 ≤ multiple X<20)	C (C represents 50 ≤ multiple X<100)	1 to 10 nM	25.5 nM	–	–	–	–
CC(Oc1ccc2[nH]nc(-c3cnn(C)c3)c2c1)c1c(CF)ccc2ncccc12 (centres unmarked) [Example 130, 6-(fluoromethyl)-5-(1-((3-(1-methyl-1H-pyrazol-4-yl)-1H-indazol-5-yl)oxy)ethyl)q uinoline]	10 to 100 nM	–	–	–	–	1 to 10 nM	37.9 nM	–	–	–	–
CC(Oc1ccc2[nH]nc(-c3cnn(C)c3)c2c1)c1cc(Cl)cc2nccnc12 (centres unmarked) [Example 136, 7-chloro-5-(1-((3-(1-methyl-1H-pyrazol-4-yl)-1H-indazol-5-yl)oxy)ethyl)qu inoxaline]	10 to 100 nM	< 1 nM	B (B represents 20 ≤ multiple X<50)	A (A represents 1 ≤ multiple X<20)	C (C represents 50 ≤ multiple X<100)	1 to 10 nM	47.5 nM	–	–	–	–
CC(Oc1cc2c(-c3cnn(C)c3)n[nH]c2cc1F)c1cc(Cl)cc2nccnc12 (centres unmarked) [Example 227, 7-chloro-5-(1-((6-fluoro-3-(1-methyl-1H-pyrazol-4-yl)-1H-indazol-5-yl)oxy)ethyl)qu inoxaline]	–	< 1 nM	A (A represents 1 ≤ multiple X<20)	–	–	–	34.5 nM	–	–	–	–

Second part, led by results:

IC50 (FGFR4)	IC50 (FGFR3)	Selectivity (X) FGFR1/FGFR3 (FGFR3)	Selectivity (X) FGFR2/FGFR3 (FGFR3)	Selectivity (X) FGFR4/FGFR3 (FGFR3)	IC50 (FGFR2)	IC50 [1, 2]	SMILES	IC50 ([1]; RT-112, 72 h)	pIC50 (FGFR4)	pIC50 (FGFR3)	pIC50 (FGFR2)
1 to 10 nM	< 1 nM	A (A represents 1 ≤ multiple X<20)	A (A represents 1 ≤ multiple X<20)	A (A represents 1 ≤ multiple X<20)	< 1 nM	3.6 nM	C[C@@H](Oc1ccc2[nH]nc(-c3cnn(C)c3)c2n1)c1c(Cl)cncc1Cl [Example 29, (R)-5-(1-(3,5-dichloropyridin-4-yl)ethoxy)-3-(1-methyl-1H-pyrazol-4-yl)-1H-pyrazolo[4,3-b]pyridine]	–	–	–	–
–	< 1 nM	A (A represents 1 ≤ multiple X<20)	–	–	–	14 nM	C[C@@H](Oc1ccc2[nH]nc(-c3cnn(CCN4CCN(C)C(=O)C4)c3)c2n1)c1c(Cl)cncc1Cl [Example 54, (R)-4-(2-(4-(5-(1-(3,5-dichloropyridin-4-yl)ethoxy)-1H-pyrazolo[4,3-b]pyridin-3-yl)-1H-pyrazol-1-yl)ethyl)-1-methylpiperazin-2-one]	–	–	–	–
–	< 1 nM	A (A represents 1 ≤ multiple X<20)	–	–	–	15.9 nM	C[C@@H](Oc1ccc2[nH]nc(-c3cnn(CCN4CCS(=O)(=O)CC4)c3)c2n1)c1c(Cl)cncc1Cl [Example 55, (R)-4-(2-(4-(5-(1-(3,5-dichloropyridin-4-yl)ethoxy)-1H-pyrazolo[4,3-b]pyridin-3-yl)-1H-pyrazol-1-yl)ethyl)thiomorph oline 1,1-dioxide]	–	–	–	–
1 to 10 nM	< 1 nM	A (A represents 1 ≤ multiple X<20)	A (A represents 1 ≤ multiple X<20)	A (A represents 1 ≤ multiple X<20)	1 to 10 nM	24.3 nM	CC(Oc1ccc2[nH]nc(-c3cnn(C)c3)c2c1)c1cccc2nccnc12 (centres unmarked) [Example 92, 5-(1-((3-(1-methyl-1H-pyrazol-4-yl)-1H-indazol-5-yl)oxy)ethyl)quin oxaline]	–	–	–	–
10 to 100 nM	< 1 nM	B (B represents 20 ≤ multiple X<50)	A (A represents 1 ≤ multiple X<20)	B (B represents 20 ≤ multiple X<50)	1 to 10 nM	9.7 nM	Cc1cc2nccnc2c(C(C)Oc2ccc3[nH]nc(-c4cnn(C)c4)c3c2)n1 (centres unmarked) [Example 183, 7-methyl-5-(1-((3-(1-methyl-1H-pyrazol-4-yl)-1H-indazol-5-yl)oxy)ethyl)pyridino [3,4-b]pyrazine]	–	–	–	–
10 to 100 nM	< 1 nM	B (B represents 20 ≤ multiple X<50)	A (A represents 1 ≤ multiple X<20)	B (B represents 20 ≤ multiple X<50)	1 to 10 nM	10.7 nM	COCC(=O)N1CC(n2cc(-c3n[nH]c4ccc(OC(C)c5cccc6nccnc56)cc34)cn2)C1 (centres unmarked) [Example 188, 2-methoxy-1-(3-(4-(5-(1-(quinoxalin-5-yl)ethoxy)-1H-indazol-3-yl)-1H-pyrazol-1-yl)azetidin-1-yl)ethan-1-one]	–	–	–	–
